“And” between values parts separate entries of the source, which are not always exact repeats. Equal entries are not always repeated.
Species: Rattus norvegicus
Test: Open TG-GATES - Regimen: Single
Format: toxicity, organism-based, Sprague-Dawley
Design: regimen Single, gender Male, age 6 weeks
Conditions: in vivo, po, route gavage; for LIVER: tissue Liver; for ALP / ALT / AST / BUN / CRE / Ca / Cl / GLC / IP / K / LDH / Na / PL / RALB / TC / TP / gamma-GTP / DBIL / TBIL: tissue Plasma; for APTT / Bas / Eos / Fbg / Hb / Ht / Lym / MCH / MCHC / MCV / Mono / Neu / PT / Plat / RBC / Ret / WBC: tissue Blood; for KIDNEY_L / KIDNEY_R / KIDNEY_TOTAL: tissue Kidney
[1] = 0 mg/kg, 24 h, dose level Control

SMILES: O=P1(N(CCCl)CCCl)NCCCO1 (stereo unspecified) [CYCLOPHOSPHAMIDE ANHYDROUS]
- LIVER [1]: 9.8 g and 8.7 g
- ALP [1]: 1816 IU/L and 1543.8 IU/L
- ALT [1]: 45.6 IU/L and 38 IU/L
- AST [1]: 71.2 IU/L and 71.6 IU/L
- BUN [1]: 16.4 mg/dL and 13.6 mg/dL
- CRE [1]: 0.2 mg/dL
- Ca [1]: 10.7 mg/dL and 11.1 mg/dL
- Cl [1]: 104.8 meq/L and 105.8 meq/L
- GLC [1]: 189.6 mg/dL and 178.8 mg/dL
- IP [1]: 7.3 mg/dL and 7.8 mg/dL
- K [1]: 4.4 meq/L
- LDH [1]: 192.2 IU/L and 79 IU/L
- Na [1]: 142.6 meq/L and 141 meq/L
- PL [1]: 161.6 mg/dL and 160.8 mg/dL
- RALB [1]: 2.9 g/dL and 2.6 g/dL
- TC [1]: 82 mg/dL and 82.6 mg/dL
- TP [1]: 5.4 g/dL and 5.6 g/dL
- gamma-GTP [1]: 1.2 IU/L
- TERMINAL_BW (2 mg/kg, 3 h, dose level Low): 191.9 g
- APTT (2 mg/kg, 3 h, dose level Low): 22.6 s
- Bas (2 mg/kg, 3 h, dose level Low): 0%
- Eos (2 mg/kg, 3 h, dose level Low): 0.4%
- Fbg (2 mg/kg, 3 h, dose level Low): 284.6 mg/dL
- Hb (2 mg/kg, 3 h, dose level Low): 13.1 g/dL
- Ht (2 mg/kg, 3 h, dose level Low): 39.2%
- Lym (2 mg/kg, 3 h, dose level Low): 85.4%
- MCH (2 mg/kg, 3 h, dose level Low): 21.8 pg
- MCHC (2 mg/kg, 3 h, dose level Low): 33.3%
- MCV (2 mg/kg, 3 h, dose level Low): 65.4 fL
- Mono (2 mg/kg, 3 h, dose level Low): 1.4%
- Neu (2 mg/kg, 3 h, dose level Low): 12.4%
- PT (2 mg/kg, 3 h, dose level Low): 15.9 s
- Plat (2 mg/kg, 3 h, dose level Low): 119.4 x10_4/uL
- RBC (2 mg/kg, 3 h, dose level Low): 600.4 x10_4/ul
- Ret (2 mg/kg, 3 h, dose level Low): 8.8%
- WBC (2 mg/kg, 3 h, dose level Low): 81 x10_2/uL
- KIDNEY_L (2 mg/kg, 3 h, dose level Low): 0.9 g
- KIDNEY_R (2 mg/kg, 3 h, dose level Low): 0.9 g
- KIDNEY_TOTAL (2 mg/kg, 3 h, dose level Low): 1.8 g
- LIVER (2 mg/kg, 3 h, dose level Low): 9 g
- ALP (2 mg/kg, 3 h, dose level Low): 1623.4 IU/L
- ALT (2 mg/kg, 3 h, dose level Low): 42.2 IU/L
- AST (2 mg/kg, 3 h, dose level Low): 73.4 IU/L
- BUN (2 mg/kg, 3 h, dose level Low): 12.4 mg/dL
- CRE (2 mg/kg, 3 h, dose level Low): 0.1 mg/dL
- Ca (2 mg/kg, 3 h, dose level Low): 10.8 mg/dL
- Cl (2 mg/kg, 3 h, dose level Low): 107.2 meq/L
- DBIL (2 mg/kg, 3 h, dose level Low): 0 mg/dL
- GLC (2 mg/kg, 3 h, dose level Low): 190 mg/dL
- IP (2 mg/kg, 3 h, dose level Low): 7.9 mg/dL
- K (2 mg/kg, 3 h, dose level Low): 4.1 meq/L
- LDH (2 mg/kg, 3 h, dose level Low): 181.4 IU/L
- Na (2 mg/kg, 3 h, dose level Low): 144 meq/L
- PL (2 mg/kg, 3 h, dose level Low): 119.2 mg/dL
- RALB (2 mg/kg, 3 h, dose level Low): 2.9 g/dL
- TBIL (2 mg/kg, 3 h, dose level Low): 0.022 mg/dL
- TC (2 mg/kg, 3 h, dose level Low): 64.4 mg/dL
- TP (2 mg/kg, 3 h, dose level Low): 5.2 g/dL
- gamma-GTP (2 mg/kg, 3 h, dose level Low): 1 IU/L
- TERMINAL_BW (2 mg/kg, 6 h, dose level Low): 187.4 g
- APTT (2 mg/kg, 6 h, dose level Low): 21.7 s
- Bas (2 mg/kg, 6 h, dose level Low): 0%
- Eos (2 mg/kg, 6 h, dose level Low): 0.8%
- Fbg (2 mg/kg, 6 h, dose level Low): 301.4 mg/dL
- Hb (2 mg/kg, 6 h, dose level Low): 13.1 g/dL
- Ht (2 mg/kg, 6 h, dose level Low): 39.4%
- Lym (2 mg/kg, 6 h, dose level Low): 76.2%
- MCH (2 mg/kg, 6 h, dose level Low): 21.4 pg
- MCHC (2 mg/kg, 6 h, dose level Low): 33.4%
- MCV (2 mg/kg, 6 h, dose level Low): 64.2 fL
- Mono (2 mg/kg, 6 h, dose level Low): 2.2%
- Neu (2 mg/kg, 6 h, dose level Low): 20.2%
- PT (2 mg/kg, 6 h, dose level Low): 16 s
- Plat (2 mg/kg, 6 h, dose level Low): 121.6 x10_4/uL
- RBC (2 mg/kg, 6 h, dose level Low): 613.6 x10_4/ul
- Ret (2 mg/kg, 6 h, dose level Low): 8.5%
- WBC (2 mg/kg, 6 h, dose level Low): 94.5 x10_2/uL
- KIDNEY_L (2 mg/kg, 6 h, dose level Low): 0.9 g
- KIDNEY_R (2 mg/kg, 6 h, dose level Low): 0.9 g
- KIDNEY_TOTAL (2 mg/kg, 6 h, dose level Low): 1.7 g
- LIVER (2 mg/kg, 6 h, dose level Low): 8 g
- ALP (2 mg/kg, 6 h, dose level Low): 1350.2 IU/L
- ALT (2 mg/kg, 6 h, dose level Low): 39.2 IU/L
- AST (2 mg/kg, 6 h, dose level Low): 69.2 IU/L
- BUN (2 mg/kg, 6 h, dose level Low): 10.2 mg/dL
- CRE (2 mg/kg, 6 h, dose level Low): 0.1 mg/dL
- Ca (2 mg/kg, 6 h, dose level Low): 10.6 mg/dL
- Cl (2 mg/kg, 6 h, dose level Low): 106.8 meq/L
- DBIL (2 mg/kg, 6 h, dose level Low): 0 mg/dL
- GLC (2 mg/kg, 6 h, dose level Low): 184.8 mg/dL
- IP (2 mg/kg, 6 h, dose level Low): 9.4 mg/dL
- K (2 mg/kg, 6 h, dose level Low): 4.4 meq/L
- LDH (2 mg/kg, 6 h, dose level Low): 195.2 IU/L
- Na (2 mg/kg, 6 h, dose level Low): 142.8 meq/L
- PL (2 mg/kg, 6 h, dose level Low): 136.8 mg/dL
- RALB (2 mg/kg, 6 h, dose level Low): 2.9 g/dL
- TBIL (2 mg/kg, 6 h, dose level Low): 0.032 mg/dL
- TC (2 mg/kg, 6 h, dose level Low): 78.2 mg/dL
- TP (2 mg/kg, 6 h, dose level Low): 5.3 g/dL
- gamma-GTP (2 mg/kg, 6 h, dose level Low): 1.2 IU/L
- TERMINAL_BW (2 mg/kg, 9 h, dose level Low): 193.9 g
- APTT (2 mg/kg, 9 h, dose level Low): 20.9 s
- Bas (2 mg/kg, 9 h, dose level Low): 0%
- Eos (2 mg/kg, 9 h, dose level Low): 0.6%
- Fbg (2 mg/kg, 9 h, dose level Low): 312.6 mg/dL
- Hb (2 mg/kg, 9 h, dose level Low): 12.9 g/dL
- Ht (2 mg/kg, 9 h, dose level Low): 38.9%
- Lym (2 mg/kg, 9 h, dose level Low): 76.4%
- MCH (2 mg/kg, 9 h, dose level Low): 21.2 pg
- MCHC (2 mg/kg, 9 h, dose level Low): 33.1%
- MCV (2 mg/kg, 9 h, dose level Low): 64.1 fL
- Mono (2 mg/kg, 9 h, dose level Low): 1.6%
- Neu (2 mg/kg, 9 h, dose level Low): 20.6%
- PT (2 mg/kg, 9 h, dose level Low): 16.1 s
- Plat (2 mg/kg, 9 h, dose level Low): 120.1 x10_4/uL
- RBC (2 mg/kg, 9 h, dose level Low): 607.2 x10_4/ul
- Ret (2 mg/kg, 9 h, dose level Low): 8.3%
- WBC (2 mg/kg, 9 h, dose level Low): 83.5 x10_2/uL
- KIDNEY_L (2 mg/kg, 9 h, dose level Low): 0.9 g
- KIDNEY_R (2 mg/kg, 9 h, dose level Low): 0.9 g
- KIDNEY_TOTAL (2 mg/kg, 9 h, dose level Low): 1.8 g
- LIVER (2 mg/kg, 9 h, dose level Low): 8.3 g
- ALP (2 mg/kg, 9 h, dose level Low): 1429.8 IU/L
- ALT (2 mg/kg, 9 h, dose level Low): 36.4 IU/L
- AST (2 mg/kg, 9 h, dose level Low): 69 IU/L
- BUN (2 mg/kg, 9 h, dose level Low): 10.2 mg/dL
- CRE (2 mg/kg, 9 h, dose level Low): 0.2 mg/dL
- Ca (2 mg/kg, 9 h, dose level Low): 10.7 mg/dL
- Cl (2 mg/kg, 9 h, dose level Low): 106.4 meq/L
- DBIL (2 mg/kg, 9 h, dose level Low): 0 mg/dL
- GLC (2 mg/kg, 9 h, dose level Low): 179.2 mg/dL
- IP (2 mg/kg, 9 h, dose level Low): 10.1 mg/dL
- K (2 mg/kg, 9 h, dose level Low): 4 meq/L
- LDH (2 mg/kg, 9 h, dose level Low): 221 IU/L
- Na (2 mg/kg, 9 h, dose level Low): 143.4 meq/L
- PL (2 mg/kg, 9 h, dose level Low): 142.4 mg/dL
- RALB (2 mg/kg, 9 h, dose level Low): 3.1 g/dL
- TBIL (2 mg/kg, 9 h, dose level Low): 0.036 mg/dL
- TC (2 mg/kg, 9 h, dose level Low): 81.2 mg/dL
- TP (2 mg/kg, 9 h, dose level Low): 5.4 g/dL
- gamma-GTP (2 mg/kg, 9 h, dose level Low): 1 IU/L

— ChEMBL document CHEMBL3885861, “Open TG-GATES”
